The results in this text go back to patent publication US20050238740A1, “Use of mastic and its components for the control of microbial infections” (priority 2002, published 2005).

Values after ≈ are worked out from the molar mass of the structure shown. Values joined by “and” are separate entries in the source; they are usually repeats but may differ in a detail not shown here. Identical values can stand only once. Like-named read-outs stand apart in the source and are kept apart here.

Common to all, as to test: MTT cytotoxic/cytostatic activity, 48 hours exposure
What all share (type): cell-based

The test system of experiment [1] is human epidermoid carcinoma A431. Particulars: for IC50: Homo sapiens, A-431. Here is the method:
(§1) Three extracts derived from Pistacia lentiscus var. Chia were tested for their cytotoxic/cytostatic activity against three established cancer cell lines, i.e human mammary adenocarcinoma MCF-7, human colon adenocarcinoma HT-29, and human epidermoid carcinoma A431. A modification of the MTT method (Denizot and Lang, 1986, J Immunol Meth 89, 271) was used for the assessment of cytotoxicity. Briefly, exponentially growing cells were exposed to varying concentrations of the test compounds (or control medium) for 48 hours. Then, the medium was replaced with MTT [3-(4,5-dimethylthiazol-2-yl)-2,5-diphenyltetrazolium bromide] for a further 4 -hour incubation. Finally, the MTT-formazan was solubilized in isopropanol and the optical density was measured at a wavelength of 550 nm and a reference wavelength of 690 nm. A representative example of the semi-log inhibition curves obtained after exposure of A43 1 cells to the three Pistacia lentiscus extracts is illustrated in FIG. 2.
The inhibition curves were used to determine the IC50 of each extract, i.e. the concentration that produced a 50% reduction of the absorbance relative to the absorbance of the control culture. The average IC50s of each extract for each cell line, after at least three independent trials, are presented in the following table (5-fluorouracil a classical chemotherapeutic agent, was included as a positive control in the case of A431 epidermoid carcinoma cells):
We used the methodology of MTT (see Example 6), using A431 cells. The average IC50s of each compound, after at least three independent trials, are presented in the following table (the data of the previous report regarding A431 cells are included in the table for reasons of comparison):
The neutral extract of the essential oil and two of the isolated ingredients, i.e. isomasticadienolic acid, and oleanonic acid were tested for […] activity using the methodology of MTT (Example 7) and three established human cancer cell lines.

Experiment [2] deals with human colon adenocarcinoma HT-29. The following applies: two independent trials, essential oil dissolved in absolute ethanol (Table 11). The method, then: as §1
The inhibition curves were used to determine the IC50 of each extract, i.e. the concentration that produced a 50% reduction of the absorbance relative to the absorbance of the control culture. […]

Experiment [3] concerns human lung carcinoma A549. Particulars: two independent trials, essential oil dissolved in absolute ethanol (Table 11).
The mark [4] stands for this setting: A431, at least three independent trials (Table 10), read-out: IC50, inhibition of A431 cancer cell proliferation.

`O=c1[nH]cc(F)c(=O)[nH]1` [5-fluorouracil, reference compound]: the IC50 in experiment [1] (setting [4]) is 2.25 µg/mL and 17.3 µM; in experiment [1] (Epidermoid carcinoma A431, 48 hours, at least three independent trials (Table 9), read-out: IC50, inhibition of cancer cell proliferation), 2.25 µg/mL (≈ 17.3 µM).

Turning to `C/C(=C/CC[C@H](C)[C@@H]1CC[C@]2(C)C3=C(CC[C@@]12C)[C@@]1(C)CC[C@H](O)C(C)(C)[C@@H]1CC3)C(=O)O` [Isomasticadienolic, isomasticadienolic acid], the “average IC50” value in experiment [1] (Epidermoid carcinoma A431, two independent trials, essential oil dissolved in absolute ethanol (Table 11)) is reported as 25 (±5) μg/mL; in experiment [2], 95 (±5) μg/mL; in experiment [3], 95 (±5) μg/mL.

With `CC1(C)C=C2[C@H]3CC[C@@H]4[C@@]5(C)CCC(=O)C(C)(C)[C@@H]5CC[C@@]4(C)[C@]3(C)CC[C@@]2(C(=O)O)CC1` [moronic, moronic acid], the IC50 in experiment [1] (setting [4]) is 47.7 µg/mL and 105 µM.

In the case of `CC1(C)CC[C@]2(C(=O)O)CC[C@]3(C)C(=CC[C@@H]4[C@@]5(C)CCC(=O)C(C)(C)[C@@H]5CC[C@]43C)[C@@H]2C1` [oleanonic, oleanonic acid], the IC50 is 17.5 µg/mL and 38.3 µM in experiment [1] (setting [4]); 45 µg/mL (≈ 99 µM) in experiment [1] (Epidermoid carcinoma A431, two independent trials, essential oil dissolved in absolute ethanol (Table 11), read-out: average IC50); 105 µg/mL (≈ 231 µM) in experiment [2] (Homo sapiens); 110 µg/mL (≈ 242 µM) in experiment [3] (Homo sapiens).
